Data taken from patent US20200337310A1, “Herbicidal Combinations” (UPL LTD, priority 2018, published 2020).

Tests used:
Assay in all cases: Field trial, weed control burn down symptoms at 5 DAT
Conditions in all cases: field trial India, glufosinate ammonium 400, carfentrazone 10, imazethapyr 100 gm/ha
Trianthema monogyna = system: Trianthema monogyna
Cyprus spp = system: Cyprus spp
Parthenium hysterophorus = system: Parthenium hysterophorus
Dinebra retroflexa = system: Dinebra retroflexa

Compound: CP(=O)(O)CCC(N)C(=O)O (racemic) [Glufosinate ammonium, (2RS)-2-amino-4-[hydroxy(methyl)phosphinoyl]butyric acid]
- % Weed control Burn Down Symptoms Generation, Trianthema monogyna, Actual (Trianthema monogyna): 25%
- % Weed control Burn Down Symptoms Generation, Cyprus spp, Actual (Cyprus spp): 5%
- % Weed control Burn Down Symptoms Generation, Parthenium hysterophorus, Actual (Parthenium hysterophorus): 30%
- % Weed control Burn Down Symptoms Generation, Dinebra retroflexa, Actual (Dinebra retroflexa): 15%

Compound: CCOC(=O)C(Cl)Cc1cc(-n2nc(C)n(C(F)F)c2=O)c(F)cc1Cl (racemic) [Carfentrazone, ethyl (RS)-2-chloro-3-{2-chloro-5-[4-(difluoromethyl)-4,5-dihydro-3-methyl-5-oxo-1H-1,2,4-triazol-1-yl]-4-fluorophenyl}propionate]
- % Weed control Burn Down Symptoms Generation, Trianthema monogyna, Actual (Trianthema monogyna): 70%
- % Weed control Burn Down Symptoms Generation, Cyprus spp, Actual (Cyprus spp): 60%
- % Weed control Burn Down Symptoms Generation, Parthenium hysterophorus, Actual (Parthenium hysterophorus): 5%
- % Weed control Burn Down Symptoms Generation, Dinebra retroflexa, Actual (Dinebra retroflexa): 0%

Compound: CCc1cnc(C2=NC(C)(C(C)C)C(=O)N2)c(C(=O)O)c1 (racemic) [Imazethapyr, 5-ethyl-2-[(RS)-4-isopropyl-4-methyl-5-oxo-2-imidazolin-2-yl]nicotinic acid]
- % Weed control Burn Down Symptoms Generation, Trianthema monogyna, Actual (Trianthema monogyna): 10%
- % Weed control Burn Down Symptoms Generation, Cyprus spp, Actual (Cyprus spp): 00%
- % Weed control Burn Down Symptoms Generation, Parthenium hysterophorus, Actual (Parthenium hysterophorus): 5%
- % Weed control Burn Down Symptoms Generation, Dinebra retroflexa, Actual (Dinebra retroflexa): 0%
